Paper PMC7043210, “Differential activation of G protein‐mediated signaling by synthetic cannabinoid receptor agonists” (Pharmacology Research & Perspectives, 2020)
Entries after “also recorded” stand apart in the source; their conditions may differ. Like-named read-outs stand apart in the source and are kept apart here.

Assays:
[1] = tested on: CB1; set-up: method as in PMID 30925348, PMID 26795398, PMID 29042214, PMID 28874764, PMID 25769232; conditions: mice; cited from earlier work
[2] = molecular target: T1, human CB1 receptor (Homo sapiens, UniProt P21554); format: cell-based
T1 construct: HA (hemagglutinin); expressed in transfected cells; host or cells: HEK 293 FlpIn cells with GIRK4 expression, stably transfected (pcDNA5/FRT + pOG44)

[3] = molecular target: T1, human CB1 receptor; format: cell-based; remark: listed apart in the source
[4] = tested on: CB1; set-up: method as in PMID 29408093; conditions: HEK cells transiently expressing CB1; cited from earlier work
[5] = tested on: HEK 293 wild‐type cells; assay: FSK-stimulated cAMP accumulation in HEK 293 wild-type cells (not containing CB1 receptors); format: cell-based, human; conditions: 10 µmol L^−1, HEK 293 wild-type cells
[6] = read-out: G s (+PTX) EC50 (converted)
[7] = read-out: G i (‐PTX) EC50 (converted)
[8] = read-out: Gs (+PTX) EC50 (converted)

T1 sequence (P21554 whole entry): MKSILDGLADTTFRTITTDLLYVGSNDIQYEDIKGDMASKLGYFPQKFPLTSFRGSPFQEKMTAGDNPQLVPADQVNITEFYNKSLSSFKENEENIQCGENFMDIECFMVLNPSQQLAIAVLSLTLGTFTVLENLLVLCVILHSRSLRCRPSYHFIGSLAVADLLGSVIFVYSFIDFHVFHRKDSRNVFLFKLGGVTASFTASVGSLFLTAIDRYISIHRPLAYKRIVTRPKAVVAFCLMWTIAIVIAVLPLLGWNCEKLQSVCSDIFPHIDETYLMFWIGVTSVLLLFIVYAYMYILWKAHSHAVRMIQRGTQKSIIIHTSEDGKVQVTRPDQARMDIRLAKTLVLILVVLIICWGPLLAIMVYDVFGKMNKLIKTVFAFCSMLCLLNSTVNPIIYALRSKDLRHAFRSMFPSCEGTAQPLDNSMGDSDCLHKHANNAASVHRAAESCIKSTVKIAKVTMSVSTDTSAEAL

SMILES | induced seizures, mechanism [1] | G s (+PTX) E max (% FSK) [2] [% FSK] | G s (+PTX) pEC50 [2] | increase in cAMP levels above that produced by FSK alone [2] | EC50 [2, 6] [nM] | G i (‐PTX) E max (% FSK) [3] [% FSK] | G i (‐PTX) pEC50 [3] | G i (−PTX) selectivity [3] | EC50 [3, 7] [nM] | effect of SR141716A pretreatment on SCRA-mediated stimulation of FSK-induced cAMP response [2] | further results
O=C(c1cccc2ccccc12)c1cn(CCCCCF)c2ccccc12 [AM‐2201] | CB1‐mediated |  |  |  |  |  |  |  |  |  | 
CCCCCn1cc(C(=O)Oc2cccc3cccnc23)c2ccccc21 [PB‐22] |  | 130 ± 3 | 7.2 ± 0.5 (69) | more than 30% | 69 | 64 ± 3 | 8.6 ± 0.2 (2.5) | 28 | 2.5 |  | 
CCCCC/C=C\C/C=C\C/C=C\C/C=C\CCCC(=O)OC(CO)CO [2‐AG, 2‐arachidonoyl glycerol, reference compound] |  |  |  |  |  |  |  |  |  |  | effect on cAMP relative to CP55940 [2]: approximately twice that of CP55940
CC(C)[C@H](NC(=O)c1nn(Cc2ccc(F)cc2)c2ccccc12)C(N)=O [AB‐FUBINACA] |  | 144 ± 12 |  | more than 30% |  | 61 ± 2 | 9.0 ± 0.2 (0.96) |  | 0.96 | inhibited | effect on cAMP relative to CP55940 [2]: up to 2.5 times; EC50 [2, 8]: 383 nM; Gi (-PTX) selectivity [3]: 348; effect of SR141716A pretreatment on SCRA-induced inhibition of cAMP signaling [3]: blocked; EC50 ([3]; read-out: Gi (-PTX) EC50 (converted)): 1.1 nM
CC(C)[C@H](NC(=O)c1nn(CCCCCF)c2ccccc12)C(N)=O [5F‐AB‐PINACA] | CB1‐mediated |  |  |  |  |  |  |  |  |  | 
CCCCCCC(C)(C)c1ccc([C@@H]2C[C@H](O)CC[C@H]2CCCO)c(O)c1 [CP55940, reference compound] |  |  |  | 19% |  |  |  |  |  |  | 
COC(=O)[C@@H](NC(=O)c1cn(CCCCCF)c2ccccc12)C(C)(C)C [5F‐MDMB‐PICA] |  | 126 ± 5 | 7.1 ± 0.4 (85) |  | 85 | 60 ± 4 | 9.2 ± 0.2 (0.62) | 137 | 0.62 | inhibited | effect of SR141716A pretreatment on SCRA-induced inhibition of cAMP signaling [3]: blocked
CC(C)[C@H](NC(=O)c1nn(CC2CCCCC2)c2ccccc12)C(N)=O |  |  |  |  |  |  |  |  |  | only partially inhibited; also recorded: not significantly different | effect on cAMP levels in absence and presence of forskolin [4]: elevation in cAMP levels; increase in cAMP levels above that of FSK alone [2]: 86 ± 21%; increase in FSK‐stimulated cAMP accumulation [5]: 29 ± 10%
CC1(C)C(C(=O)c2cn(CCCCCF)c3ccccc23)C1(C)C [XLR‐11] |  | 124 ± 5 | 5.3 ± 0.8 (4720) |  | 4720 | 63 ± 2 | 7.2 ± 0.2 (63) | 75 | 63 |  | Gs (+PTX) pEC50 [2]: 5.2 ± 0.8 (6490); EC50 [2, 8]: 6490 nM; Gi (-PTX) selectivity [3]: 103
CCCCCn1cc(C(=O)c2cccc3ccccc23)c2ccccc21 [JWH‐018] | CB1‐mediated | 114 ± 4 | 6.5 ± 0.7 (288) |  | 288 |  | 7.8 ± 0.2 (16) | 18 | 16 | inhibited | Gs (+PTX) pEC50 [2]: 6.7 ± 0.7 (221); activation of Gαs pathway (increase over FSK alone) [2]: 14%; EC50 [2, 8]: 221 nM; Gi (-PTX) selectivity [3]: 14; effect of SR141716A pretreatment on SCRA-induced inhibition of cAMP signaling [3]: blocked
CC(C)(NC(=O)c1nn(CCCCC#N)c2ccccc12)c1ccccc1 [CUMYL‐4CN‐BINACA, reference compound] | CB1‐mediated |  |  |  |  |  |  |  |  |  | 
CCCCCn1nc(C(=O)N[C@H](C(N)=O)C(C)C)c2ccccc21 [AB‐PINACA] |  |  |  | more than 30% |  |  |  |  |  |  | 
